Reference: ChEMBL document CHEMBL1155430, “Discovery of novel and potent benzhydryl-tropane trypanocides highly selective for Trypanosoma cruzi” (Bioorg Med Chem Lett, 2010)

Columns and labels:
[1] = tested on: L6; assay: Cytotoxicity against rat L6 cells; format: cell-based
[2] = tested on: Trypanosoma cruzi; assay: Antiparasitic activity against Trypanosoma cruzi Tulahuen C2C4 amastigotes; format: functional, organism-based
[3] = tested on: Plasmodium falciparum; assay: Antiparasitic activity against Plasmodium falciparum 3D7 at erythrocytic stage; format: functional, organism-based
[4] = Selectivity index, ratio of EC50 for Trypanosoma cruzi Tulahuen C2C4 amastigotes to the EC50 for rat L6 cells
[5] = tested on: Trypanosoma brucei rhodesiense; assay: Antiparasitic activity against Trypanosoma brucei rhodesiense STIB900 bloodstream form; format: functional, organism-based
[6] = tested on: Leishmania donovani; assay: Antiparasitic activity against Leishmania donovani MHOM/ET/67/L82 amastigotes; format: functional, organism-based
[7] = molecular target: Trypanothione reductase (Trypanosoma cruzi, UniProt P28593); assay: Inhibition of Trypanosoma cruzi X10/1 recombinant trypanothione reductase assessed as increase in absorbance at 410 nm due to the formation of TNB
Trypanothione reductase, sequence (P28593 whole entry): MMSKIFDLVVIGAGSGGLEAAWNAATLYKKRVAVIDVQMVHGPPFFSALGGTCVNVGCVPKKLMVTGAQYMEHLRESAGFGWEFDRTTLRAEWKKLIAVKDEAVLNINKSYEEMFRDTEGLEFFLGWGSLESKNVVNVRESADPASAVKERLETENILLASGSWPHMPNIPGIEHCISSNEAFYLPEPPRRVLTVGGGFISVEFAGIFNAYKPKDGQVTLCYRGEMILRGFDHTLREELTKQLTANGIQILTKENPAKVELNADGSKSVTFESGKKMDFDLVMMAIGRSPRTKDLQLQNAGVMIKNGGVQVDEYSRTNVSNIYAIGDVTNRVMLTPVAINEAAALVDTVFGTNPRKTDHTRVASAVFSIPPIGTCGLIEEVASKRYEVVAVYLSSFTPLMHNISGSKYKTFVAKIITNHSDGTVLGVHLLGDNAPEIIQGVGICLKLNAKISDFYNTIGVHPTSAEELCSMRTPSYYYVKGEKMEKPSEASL

Row | SMILES | EC50 [1] | EC50 [2] | further results
1 | CN1C2CCC1CC(=NOC(c1ccc(Cl)cc1)c1cncs1)C2 (stereo not drawn) | > 100 µM | 6 µM | –
2 | CN1C2CCC1CC(=NOCc1ccc(Cl)cc1)C2 | > 100 µM | > 10 µM | –
3 | O=C(Cn1ccnc1[N+](=O)[O-])NCc1ccccc1 [BENZNIDAZOLE] | – | 1.8 µM | –
4 | CN1C2CCC1CC(=NOC(CCc1ccccc1)c1ccc(Cl)cc1)C2 (stereo not drawn) | 20 µM | 6.5 µM | –
5 | OCCN1C2CCC1CC(=NOC(c1ccccc1)c1ccc(Cl)cc1)C2 (stereo not drawn) | 47 µM | 7.8 µM | –
6 | CN1C2CCC1CC(=NOC(CCCc1ccccc1)c1ccc(Cl)cc1)C2 (stereo not drawn) | 17 µM | 4.3 µM | –
7 | Clc1ccc(C(ON=C2CC3CCC(C2)N3)c2ccccc2)cc1 (stereo not drawn) | 9.8 µM | 2 µM | –
8 | CCN(CC)CCCC(C)Nc1ccnc2cc(Cl)ccc12 (stereo not drawn) [CHLOROQUINE] | – | – | EC50 [3]: 0.0094 µM
9 | CN(C)CCN1C2CCC1CC(=NOC(c1ccccc1)c1ccc(Cl)cc1)C2 (stereo not drawn) | 15 µM | 6.9 µM | –
10 | CN1C2CCC1CC(=NOC(c1ccc(Cl)cc1)c1cccnc1)C2 (stereo not drawn) | > 100 µM | 0.5 µM | –
11 | CN1CCC(=NOC(c2ccccc2)c2ccc(Cl)cc2)CC1 (stereo not drawn) | 50 µM | 3.7 µM | –
12 | CN1C2CCC1CC(=NOC(c1ccccc1)c1ccc(C#N)cc1)C2 (stereo not drawn) | 53 µM | 0.4 µM | –
13 | COc1cccc(C(ON=C2CC3CCC(C2)N3C)c2ccccc2)c1 (stereo not drawn) | 48 µM | 2 µM | –
14 | CN1C2CCC1CC(=NOC(c1ccncc1)c1ccc(Cl)cc1)C2 (stereo not drawn) | > 100 µM | 6.2 µM | –
15 | CC(C)=NOC(c1ccccc1)c1ccc(Cl)cc1 (stereo not drawn) | > 100 µM | > 10 µM | –
16 | CN1C2CCC1CC(=NOC(Cc1ccc(Cl)cc1)c1ccccc1)C2 (stereo not drawn) | 49 µM | 1.9 µM | –
17 | CN1C2CCC1CC(=NOC(c1ccccc1)c1ccc(Br)cc1)C2 (stereo not drawn) | 40 µM | 0.04 µM | –
18 | COc1ccc(C(ON=C2CC3CCC(C2)N3C)c2ccccc2)cc1 (stereo not drawn) | > 100 µM | 0.3 µM | –
19 | CN1C2CCC1CC(=NOC(c1ccccc1)c1ccc(I)cc1)C2 (stereo not drawn) | 39 µM | 0.04 µM | –
20 | CN1C2CCC1CC(=NOC(c1ccccc1)c1ccccc1)C2 | > 100 µM | 1.3 µM | –

Row | SMILES | EC50 [1] | EC50 [2] | further results
21 | CN1C2CCC1CC(=NOC(c1ccccc1)c1ccc(F)cc1)C2 (stereo not drawn) | 50 µM | 0.8 µM | –
22 | CN1C2CCC1CC(=NOC(c1ccc(Cl)cc1)c1ccc(Cl)cc1)C2 | 16 µM | 6 µM | –
23 | Clc1ccc(C(ON=C2CCCCC2)c2ccccc2)cc1 (stereo not drawn) | > 100 µM | > 10 µM | –
24 | COc1ccccc1C(ON=C1CC2CCC(C1)N2C)c1ccccc1 (stereo not drawn) | > 100 µM | > 10 µM | –
25 | CN1C2CCC1CC(=NOC(c1ccccc1)c1ccc(C(F)(F)F)cc1)C2 (stereo not drawn) | 35 µM | 0.03 µM | Ratio EC50 [4]: >1000
26 | Nc1nc(N)nc(Nc2ccc([As]3SCC(CO)S3)cc2)n1 (stereo not drawn) [MELARSOPROL] | – | – | EC50 [5]: 0.017 µM
27 | CN1C2CCC1CC(=NOCc1ccccc1)C2 | > 100 µM | > 10 µM | –
28 | CN1C2CCC1CC(=NOC(c1ccccc1)c1ccccc1Cl)C2 (stereo not drawn) | 15 µM | 6.8 µM | –
29 | CCCCCCCCCCCCCCCCOP(=O)([O-])OCC[N+](C)(C)C [MILTEFOSINE] | – | – | EC50 [6]: 0.27 µM
30 | CN1C2CCC1CC(=NOC(c1ccc(Cl)cc1)c1cscn1)C2 (stereo not drawn) | 71 µM | 0.8 µM | –
31 | Cc1ccc(C(ON=C2CC3CCC(C2)N3C)c2ccccc2)cc1 (stereo not drawn) | 51 µM | 0.3 µM | –
32 | CN1C2CCC1CC(=NOC(c1ccccc1)c1cccc(Cl)c1)C2 (stereo not drawn) | 19 µM | 2.1 µM | –
33 | CN1C2CCC1CC(=NOC(c1ccc(Cl)cc1)c1ccccn1)C2 (stereo not drawn) | > 100 µM | 2.9 µM | –
34 | CN1C2CCC1CC(=NOC(c1ccc(Cl)cc1)c1nccs1)C2 (stereo not drawn) | > 100 µM | 2.3 µM | –
35 | COc1cc([C@@H]2c3cc4c(cc3[C@H](O)[C@H]3COC(=O)[C@H]23)OCO4)cc(OC)c1OC [PODOFILOX] | 0.014 µM | – | –
36 | CN1C2CCC1CC(=NOC(CCc1ccc(Cl)cc1)c1ccccc1)C2 (stereo not drawn) | 16 µM | 0.8 µM | –
37 | CN1C2CCC1CC(=NOC(c1ccccc1)c1ccc(Cl)cc1)C2 (stereo not drawn) | 36 µM | 0.11 µM | EC50 [7]: 35 µM; EC50 [3]: 7.5 µM; EC50 [6]: > 30 µM; EC50 [5]: 3 µM
38 | CN1C2CCC1CC(=NOC(Cc1ccccc1)c1ccc(Cl)cc1)C2 (stereo not drawn) | 40 µM | 2.1 µM | –
39 | CN1C2CCC1CC(=NOC1c3ccccc3-c3ccccc31)C2 | 68 µM | > 10 µM | –
